Earlier results on one compound are cited in patent US7452901B2, “Anti-cancer phosphonate analogs” (Gilead Sciences, Inc., priority 2003, dated 2008).

This data set addresses T1, purine nucleotide phosphorylase (Homo sapiens, UniProt P00491).
T1 sequence (P00491 1-289): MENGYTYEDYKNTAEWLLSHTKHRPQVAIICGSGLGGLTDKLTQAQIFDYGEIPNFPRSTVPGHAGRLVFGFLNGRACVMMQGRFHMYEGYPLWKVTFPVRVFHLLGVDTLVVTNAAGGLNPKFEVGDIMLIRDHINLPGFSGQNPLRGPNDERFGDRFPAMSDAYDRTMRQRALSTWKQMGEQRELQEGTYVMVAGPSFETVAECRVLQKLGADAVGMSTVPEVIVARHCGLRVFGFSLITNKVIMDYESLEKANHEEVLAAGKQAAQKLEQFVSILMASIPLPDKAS
As to conditions: disclosed at the ACS meeting (2000).

The term IC50 denotes the concentration that gives 50% inhibition. Consider `Nc1nc2c([C@@H](CO)c3ccccc3F)c[nH]c2c(=O)[nH]1` [PNP-405], for which the IC50 is 20 nM.
